Laboratory results taken from patent US20250381307A1, “RETRO-AAV AND USE IN TREATING NEURODEGENERATIVE DISEASES” (priority 2023, published 2025).

Target: T1, rM3Ds (Rattus norvegicus, UniProt P08483, A177S/A238G/A489L/DEL261-437/DEL441-478/E258S/I253V/I483M/INS256[…]/K178L/K182A/K255R/K484R/K486H/L173F/L482A/M480V/R171S/R176Q/R179M/S481M/T174R/T181R/T257A/Y148C)
T1 sequence (P08483 with tags, fused parts or gaps Y148C/R171S/L173F/T174R/R176Q/A177S/K178L/R179M/T181R/K182A/A238G/I253V/K255R/INS256[…]/T257A/E258S/DEL261-437/DEL441-478/M480V/S481M/L482A/I483M/K484R/K486H/A489L): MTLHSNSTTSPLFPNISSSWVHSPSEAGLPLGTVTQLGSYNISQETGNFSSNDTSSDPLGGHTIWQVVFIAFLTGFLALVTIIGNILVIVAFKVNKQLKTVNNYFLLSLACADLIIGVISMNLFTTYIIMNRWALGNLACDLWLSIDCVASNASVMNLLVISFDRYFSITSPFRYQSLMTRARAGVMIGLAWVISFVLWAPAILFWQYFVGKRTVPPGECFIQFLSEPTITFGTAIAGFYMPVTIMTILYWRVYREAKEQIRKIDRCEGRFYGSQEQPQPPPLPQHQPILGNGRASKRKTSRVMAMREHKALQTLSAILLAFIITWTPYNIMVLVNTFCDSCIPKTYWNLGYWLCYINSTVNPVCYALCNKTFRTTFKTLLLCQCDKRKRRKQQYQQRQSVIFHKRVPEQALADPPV
Test: 6-OHDA parkinsonian mouse model: open field and rotarod
Assay type: in vivo, C57/BL6 mice
Parameters: rM3Ds; 2A-EYFP (C); host or cells: AAV8R12-transduced striatal D1-MSNs of mice and cynomolgus macaques (in vivo and acute slices)
Conditions: AAV8R12-G88P7-rM3Ds-2A-EYFP, 6-OHDA mice
Procedure: Rodent Parkinson's disease mice models were created through bilateral injection of 6-OHDA using the same methods as described in virus injections (Example 3). A total volume of 1 ul 6-OHDA (5 mg/ml, dissolved in sterile saline containing 0.02% ascorbic acid, Sigma) was injected into the striatum at a speed of 100 nL/min. The coordinates for striatum were 0.5 mm anterior, 1.5 mm lateral, 3.2 mm ventral to the bregma. A premedication of desipramine (25 mg/kg, Sigma) was administered to animals prior to injections of 6-OHDA, in order to increase the selectivity and efficacy of 6-OHDA-induced lesions. Mice were supplemented with DietGel (ClearH2O) for one-week post-surgery. All staining and behavioral experiments were performed at least 14 days following surgery, when the amount of dopamine depletion was maximal and stable.
Mice were individually handled for 10-20 seconds per day for at least 5 days to habituate them to the experimenter. The open field test was conducted in a test apparatus (50 cm×50 cm×50 cm) with an HD digital camera (Sony) positioned above the arena. On day one, mice were habituated to the apparatus for 10 minutes. […] The behavioral data were analyzed with ANY-maze software (Stoelting Co.).
Mice were individually handled as described in the open field test. […] Latency to fall for each trial was automatically recorded by the apparatus. […]

In the case of C[N+]1([O-])CCN(C2=Nc3cc(Cl)ccc3Nc3ccccc32)CC1 [CNO, clozapine N-oxide], the “motor skill in rotarod test” value (CNO) is reported as “partially rescued the motor skill deficit” and the “spontaneous movement in an open field” value (systemic CNO) is reported as “drastically reversed the dyskinesia-like phenotype of PD mice”.
